Source: ChEMBL document CHEMBL3507680, “University of Dundee, Gates Library screen for HepG2 cell viability”

Experiment: Human HepG2 cell viability assay in 384 well format
Format: toxicity, cell-based
Design: dose 125 nL, time 70.5 hour; concentration not given beside the values
Settings: HepG2 cells, read-out: Inhibition
Compound Cc1cc(C)n(CC(C)CNC(=O)NCc2c(C)cc(C)[nH]c2=O)n1 (stereo not drawn) has a cytotoxicity at 70.5 h of -10.1%.
Work on C=C(C)CN1CCC(NC(=O)Nc2ccc(F)c(C(N)=O)c2)CC1 yielded a cytotoxicity at 70.5 h of -6.42%.
With CNS(=O)(=O)c1ccc(CNC(=O)C2CN(C)CCO2)cc1 (stereo not drawn) the cytotoxicity at 70.5 h was -5.64%.
Compound CNS(=O)(=O)c1ccc(CNC(=O)C2CCCN(C)C2)cc1 (stereo not drawn) has a cytotoxicity at 70.5 h of -6.65%.
For CCOc1c(F)cccc1C(=O)N(c1cccnc1)C(C)C, the cytotoxicity at 70.5 h was -3.95%.
Cc1c(COC(C)C)cccc1NC(=O)N1CCC(N2CCCC2)C1 (stereo not drawn) gave a cytotoxicity at 70.5 h of 9%.
Work on CCc1n[nH]c(NC(=O)c2ccc(Cl)cn2)c1Br yielded a cytotoxicity at 70.5 h of -2.17%.
Compound Cc1c(COC(C)C)cccc1NC(=O)N1CC[C@H](O)C1 has a cytotoxicity at 70.5 h of -6.27%.
CCCn1nc2c(cc1=O)CN(c1ncnc3ccsc13)CC2 gave a cytotoxicity at 70.5 h of -13%.
Work on Cc1c(COc2ccccc2)cccc1NC(=O)N1CC[C@H](O)C1 yielded a cytotoxicity at 70.5 h of -1.47%.
For O=C(Cc1ccon1)N1CCN(c2ccncc2Cl)CC1, the cytotoxicity at 70.5 h was 5.48%.
Compound COc1ccc(CNc2nc(N3CCOCC3)ns2)cc1 has a cytotoxicity at 70.5 h of -10.7%.
With CCOc1c(F)cccc1C(=O)N(CC)C(C)c1ccncc1 (stereo not drawn) the cytotoxicity at 70.5 h was -4.06%.
In the case of O=C(Cn1cc(C2CC2)nn1)N(Cc1ccco1)Cc1cccs1, the cytotoxicity at 70.5 h is reported as -2.55%.
Work on O=C(Cc1cccnc1)NCCSc1ccccc1F yielded a cytotoxicity at 70.5 h of -11.1%.
Compound CCC(NCCn1cccn1)C(=O)Nc1cc(C)on1 (stereo not drawn) has a cytotoxicity at 70.5 h of 24.9%.
Compound CC(Cc1cccc(F)c1)C(=O)NS(=O)(=O)c1ccc(F)cc1 (stereo not drawn) has a cytotoxicity at 70.5 h of 11.8%.
In the case of COc1ccc(OCc2nc3cc4c(cc3c(=O)o2)OCCCO4)cc1, the cytotoxicity at 70.5 h is reported as -5.23%.
CSCCC(NC(N)=O)C(=O)NCc1ccc(-n2cccn2)cc1 (stereo not drawn) gave a cytotoxicity at 70.5 h of -6.9%.
CN(C)c1nc(N)nc(CN2CCC(c3ccccc3)CC2)n1 showed a cytotoxicity at 70.5 h of -10.6%.
With Cc1cc(CN(CC(N)=O)CC(C)C)on1 the cytotoxicity at 70.5 h was 18.1%.
Work on CC(C(=O)NC1(C#N)CCCCC1)N1CCc2c(ncn2C)C1 (stereo not drawn) yielded a cytotoxicity at 70.5 h of -3.36%.
CC(C)(C)NC(=O)C1CCCCN1Cc1nccn1CC(F)(F)F (stereo not drawn) showed a cytotoxicity at 70.5 h of -0.987%.
CC(C)(C)c1cc(=O)[nH]c(C2(N)CCCC2)n1 gave a cytotoxicity at 70.5 h of 14.1%.
With COc1ccccc1N1CCCC(NC(=O)Nc2cccnc2)C1 (stereo not drawn) the cytotoxicity at 70.5 h was 8.99%.
Compound COc1c(F)cc(NC(=O)N2CCC(CSC)C2)cc1F (stereo not drawn) has a cytotoxicity at 70.5 h of 16.5%.
COC(CNC(=O)CNC(=O)c1ccccc1)c1cccc(Cl)c1 (stereo not drawn) gave a cytotoxicity at 70.5 h of -2.92%.
For CC(Cc1cccc(F)c1)C(=O)NS(=O)(=O)c1ccc2c(c1)OCCO2 (stereo not drawn), the cytotoxicity at 70.5 h was 19.6%.
In the case of Cc1cc(CNC2(CO)CCOCC2)ccc1Br, the cytotoxicity at 70.5 h is reported as -0.894%.
CC(C)c1ccc(/C=C/CC(=O)NC2CCN(C(N)=O)C2)cc1 (stereo not drawn) showed a cytotoxicity at 70.5 h of 9%.
CC(C)c1ccc(/C=C/CC(=O)NC2CCS(=O)(=O)CC2)cc1 gave a cytotoxicity at 70.5 h of -1.79%.
With CCN(CC)C1CCN(C(=O)Nc2cc(F)c(OC)c(F)c2)C1 (stereo not drawn) the cytotoxicity at 70.5 h was 1.91%.
For Cc1nnc(CN(C)CC(=O)N2CCCC(C)CC2)n1C (stereo not drawn), the cytotoxicity at 70.5 h was -8.63%.
O=C(NC1CCN(c2ccccc2OC(F)F)C1)c1cccnc1 (stereo not drawn) showed a cytotoxicity at 70.5 h of -4.78%.
O=S(=O)(CCCN1CCc2c(ncn2C2CC2)C1)c1ccccc1 showed a cytotoxicity at 70.5 h of 1.18%.
Compound CN(CCCOc1ccc(F)cc1)S(=O)(=O)c1cnn(C)c1 has a cytotoxicity at 70.5 h of -8.61%.
Compound CN(CCCOc1ccccc1)S(=O)(=O)c1cnn(C)c1 has a cytotoxicity at 70.5 h of 21.2%.
Cc1ccc(OCCN(C)S(=O)(=O)c2cnn(C)c2)cc1 gave a cytotoxicity at 70.5 h of -4.35%.
For NC(=O)NC(=O)C(c1ccccc1)N1CCN(Cc2ccccc2)CC1 (stereo not drawn), the cytotoxicity at 70.5 h was 1.22%.
COCCNC(=O)CCNc1cc(C)nc(-c2ccncc2)n1 showed a cytotoxicity at 70.5 h of -15.7%.
For Cc1cc(NCCC(=O)NC2CCCC2)nc(-c2ccncc2)n1, the cytotoxicity at 70.5 h was 0.777%.
Compound CC(C)N1CCCC(CNC(=O)c2ccnc(-n3ccnc3)c2)C1 (stereo not drawn) has a cytotoxicity at 70.5 h of -4.35%.
Compound Cc1ccc2c(c1)CCC2NC(=O)N1CCC(C(N)=O)CC1 (stereo not drawn) has a cytotoxicity at 70.5 h of -6.61%.
Compound Cc1cc(NCCC(=O)NC2CCS(=O)(=O)C2)nc(-c2ccncc2)n1 (stereo not drawn) has a cytotoxicity at 70.5 h of -8.91%.
With CN(CCNC(=O)c1ccnc(-n2ccnc2)c1)C1CC1 the cytotoxicity at 70.5 h was -1.87%.
CC(NC(=O)NCC(F)(F)F)c1nncn1C (stereo not drawn) showed a cytotoxicity at 70.5 h of 29.7%.
Compound CS(=O)(=O)CCN1CCc2c(ncn2C2CC2)C1 has a cytotoxicity at 70.5 h of -3.42%.
Work on CN(C)CCOc1ccc(N(C)S(=O)(=O)c2cnn(C)c2)cc1 yielded a cytotoxicity at 70.5 h of -1.43%.
Compound c1ccc(C2(CNCc3cnc(N4CCOCC4)nc3)CC2)cc1 has a cytotoxicity at 70.5 h of -8.71%.
Cc1cc(C(=O)N(CCN(C)C)Cc2ccc(Cl)cc2)no1 gave a cytotoxicity at 70.5 h of -0.353%.
Cc1ccc(CNc2ccccc2-n2ccc(C)n2)nc1 showed a cytotoxicity at 70.5 h of 8.61%.
Compound CC(C)CC(=O)NCCCc1cc(N)n(-c2ccccc2)n1 has a cytotoxicity at 70.5 h of 4.65%.
Compound CC(CNC(=O)NCCCc1cc(N)n(-c2ccccc2)n1)N(C)C (stereo not drawn) has a cytotoxicity at 70.5 h of -8.44%.
Work on CCc1nc(CN2CCCC(N(C)Cc3nc(C)c(C)o3)C2)no1 (stereo not drawn) yielded a cytotoxicity at 70.5 h of -74.1%.
For CCc1nc(CN2CCCC(N(C)Cc3cnc(C)cn3)C2)no1 (stereo not drawn), the cytotoxicity at 70.5 h was -71.2%.
For Cc1nc(CCNC(=O)C2CC(=O)N(C(C)C)C2)cs1 (stereo not drawn), the cytotoxicity at 70.5 h was 32.3%.
For CCSc1cc(C(=O)NCCNC(=O)Cc2ccccc2)ccn1, the cytotoxicity at 70.5 h was -117%.
In the case of CCCc1cc(NC2CCc3nc(CC)nn3C2)n2ncnc2n1 (stereo not drawn), the cytotoxicity at 70.5 h is reported as -100%.
Compound Cc1nc(C)n(CC2CCCN2Cc2coc(-c3cccs3)n2)n1 (stereo not drawn) has a cytotoxicity at 70.5 h of -115%.
For Cc1ccc(-c2nc(CCNC(=O)C3CC(=O)N(C)C3)cs2)cc1 (stereo not drawn), the cytotoxicity at 70.5 h was -98.5%.
Compound CCCc1cc(NC2CCc3nc(C(C)C)nn3C2)n2ncnc2n1 (stereo not drawn) has a cytotoxicity at 70.5 h of -104%.
Compound c1csc(-c2nc(CN3CCCC3Cn3cccn3)co2)c1 (stereo not drawn) has a cytotoxicity at 70.5 h of -75.5%.
Cc1cnn(CC2CCCN2Cc2coc(-c3cccc(F)c3)n2)c1 (stereo not drawn) showed a cytotoxicity at 70.5 h of -113%.
In the case of CCS(=O)(=O)CCCOc1nc(-c2ccccc2Cl)no1, the cytotoxicity at 70.5 h is reported as -96.6%.
Work on O=C1CCC(=O)N1CCOc1nc(-c2ccccc2Cl)no1 yielded a cytotoxicity at 70.5 h of -77.6%.
For Cc1n[nH]c(C2CN(CC(=O)NCc3sccc3C)CCO2)n1 (stereo not drawn), the cytotoxicity at 70.5 h was -93.4%.
For O=C(NS(=O)(=O)c1cc(Cl)ccc1Cl)c1cccc2c1OCCO2, the cytotoxicity at 70.5 h was 58.5%.
Compound O=C(NS(=O)(=O)c1ccc(Cl)cc1F)c1cccc2c1OCCO2 has a cytotoxicity at 70.5 h of -108%.
Compound CCSc1cc(C(=O)NCCNC(=O)N(C)C)ccn1 has a cytotoxicity at 70.5 h of -76.6%.
Work on Cc1cc(C(=O)N2CCN(S(C)(=O)=O)[C@@H](C)C2)c(F)cc1F yielded a cytotoxicity at 70.5 h of -97.9%.
Cc1cc(NC2CCc3ncnn3C2)n2nc(C(F)(F)F)nc2n1 (stereo not drawn) gave a cytotoxicity at 70.5 h of -95.5%.
In the case of Cc1ccc(F)cc1C(=O)N1CCN(S(C)(=O)=O)[C@@H](C)C1, the cytotoxicity at 70.5 h is reported as -82.4%.
Work on CN(Cc1ccc(N2CCOCC2)cc1)Cc1noc(C(C)(C)C)n1 yielded a cytotoxicity at 70.5 h of 7.66%.
In the case of COCCc1noc(CN2CCCC2c2noc(C3CC3)n2)n1 (stereo not drawn), the cytotoxicity at 70.5 h is reported as -1.05%.
With O=C(C(CNCc1ccccn1)c1ccccc1)N1CCOCC1 (stereo not drawn) the cytotoxicity at 70.5 h was 0.375%.
O=S(=O)(NCC1COc2ccccc2C1)N1CCCCC1 (stereo not drawn) gave a cytotoxicity at 70.5 h of -9.29%.
CC(C(=O)N1CCN(Cc2ccncc2)CC1)n1cncn1 (stereo not drawn) gave a cytotoxicity at 70.5 h of -4.9%.
With N#Cc1ccc(CNc2cccc(C(=O)N3CCOCC3)c2)cc1 the cytotoxicity at 70.5 h was -9.56%.
In the case of Cc1ccc(OCCNc2cccc(C(=O)N3CCOCC3)c2)cc1, the cytotoxicity at 70.5 h is reported as 23.6%.
CC(C)Cc1nc(CN2CCC(NC(=O)c3cccs3)CC2)no1 gave a cytotoxicity at 70.5 h of -6.12%.
CC(C)c1nn(C)c(N(C)C)c1CNCC(O)COc1ccccc1 (stereo not drawn) gave a cytotoxicity at 70.5 h of -3.95%.
Compound Cc1noc(C)c1CN1CCN(C(=O)C(C(C)C)n2cncn2)CC1 (stereo not drawn) has a cytotoxicity at 70.5 h of 2.25%.
Work on NC1(c2nc(C(F)(F)F)cc(=O)[nH]2)CCCC1 yielded a cytotoxicity at 70.5 h of 21.9%.
